Test results: patent US20250295619A1, “Use of Salvianolic Acid E in the Preparation of Drugs Targeting Senescent Cells, Inhibiting Tumors or Extending Lifespan” (Shanghai Institute of Nutrition and Health, Chinese Academy …, priority 2024, published 2025)
“Also recorded” adds a separate entry of the source.

What was measured:
SASP = experiment: qRT-PCR of typical SASP molecules in BLEO-induced senescent PSC27 cells at different SAE concentrations; format: cell-based, human
Procedure: All data are normalized results compared to the CTRL group. *P<0.05, **P<0.01, ***P<0.001.
(§1) To cause cell damage, 50 μg/mL bleomycin (bleomycin, BLEO) was added to the culture medium when PSC27 cells grew to 80% (abbreviated as PSC27-CTRL). After 12 hours of drug treatment, the cells were simply washed 3 times with PBS, left in the culture medium for 7-10 days, and then the subsequent experiments were performed.
Total RNA of cells in the growth phase or stasis phase was extracted with Trizol reagent. 1 mL Trizol was added to each T25 culture flask. The cell layer was scraped off with a cell scraper, transferred into a centrifuge tube and mixed well until not viscous. […]
Samples were loaded according to the above standard, and the reaction conditions were: 95° C. pre-denaturation for 15 seconds, then 95° C. for 5 seconds, 60° C. for 31 seconds, 40 cycles; melting curve conditions were 95° C. for 15 seconds, 60° C. for 30 seconds, 95° C. for 15 seconds. […] After the reaction was completed, the amplification of each gene was checked by software analysis, the corresponding threshold cycle number was derived, and the relative expression of each gene was calculated using the 2-ΔΔCt method. The peak and waveform of the melting curve was analyzed to determine whether the obtained amplification product was a specific single target fragment.

PSC27 [1] = experiment: CCK8 survival of proliferating and senescent PSC27 cells; format: cell-based, human
Procedure: as §1
Pharmacodynamic analysis was conducted on an organic chemical drug library (TOPSCIENCE) with a total of 1470 small molecule compounds, mostly derived from medicinal plants and had anti-senescence potential. Each product was diluted to a 96-well plate according to a certain concentration gradient, and the density was 5000 cells per well. The medium uses DMEM, and the working concentration of natural product (or compound) is generally controlled at […] to 1 mM. After 3-7 days of drug treatment, cell proliferation was measured with CCK-8 Cell Counting Kit (based on WST-8 principle, Vazyme), and cell apoptosis activity was determined with Caspase 3/7 Activity Kit (Promega).

PSC27 [2] = experiment: Population doubling (PD) test of PSC27; format: cell-based, human
Procedure: The cells were damaged by BLEO at passage 10 (p10), and then SAE was added to the medium at day 8. The effect SAE on cell proliferation potential is determined by comparative analysis of the population doubling (PD) of CTRL group, BLEO group, SAE group and BLEO/SAE group. ^, P>0.05; ***P<0.001.

PSC27 [3] = experiment: Flow cytometry apoptosis of PSC27; format: cell-based, human; conditions: SAE
Source text: Q2, distribution area of early apoptotic cells; Q3, distribution area of late apoptotic cells.

[4] = test system: senescent cells in tumor tissue; experiment: SA-β-Gal staining of tumor tissues of PC3/PSC27 tumor-bearing mice; format: in vivo, mouse; conditions: SAE with MIT
Procedure: Representative pictures after SA-β-Gal staining. Scale bar, 100 μm.
In a preclinical treatment trial, subcutaneously transplanted mice were fed with a standard experimental diet, after 2 weeks chemotherapy drugs mitoxantrone (MIT, dose: 0.2 mg/kg) and/or SAE (500 μl, dose: 10 mg/kg) via intraperitoneal administration. The time points were: the former was administrated on the first day of the 3rd, 5th and 7th weeks, and the latter was administrated on the first day of the 5th and 7th weeks. A total of 3 cycles of MIT administration were carried out throughout the course of treatment, and each cycle lasted for 2 weeks. After the course of treatment, mouse tumors were harvested for volume measurement and histological analysis. Each mouse cumulatively received 0.6 mg/kg body weight of MIT and 30 mg/kg body weight of SAE. In order to cause systemic expression of SASP factors induced by chemotherapy, MIT was administered to mice through intravenous infusion according to the above steps and sequence, but the dose was reduced to 0.1 mg/kg body weight/each time (the cumulative dose of MIT received in the whole course of treatment was 0.3 mg/kg body weight) to reduce drug-related toxicity. The chemotherapy experiment ended at the end of the 8th week, and the mice were dissected immediately after sacrifice, and the xenograft tumors were collected and used for pathological system analysis.

PC3/PSC27 tumors = experiment: Disease-free survival of tumor-bearing NOD/SCID mice; format: in vivo, mouse; conditions: severe disease at tumor size ≥2000 mm3
Source text: When the tumor volume in the vehicle, MIT, SAE and MIT/SAE groups exceeds 2000 mm3, it is considered that severe disease has occurred, and the mice need to be killed in time and the tumor bearing status should be detected. ^, P>0.05; **, P<0.01.
Then the survival of animals in different drug-treated groups was compared, primarily in a time-prolonged manner to assess the consequences of tumor progression. In this preclinical cohort, animals were monitored for prostate tumor growth, and severe disease was judged to have occurred once the […] tumor burden in mice was prominent (size≥2000 mm3), which was a method used for assessing progression of tumors and other diseases in certain conditions.

With `O=C(/C=C/c1ccc(O)c(O)c1/C(=C\c1ccc(O)c(O)c1)C(=O)O[C@H](Cc1ccc(O)c(O)c1)C(=O)O)O[C@H](Cc1ccc(O)c(O)c1)C(=O)O` [SAE, salvianolic acid E] the “inhibition of SASP development at lower or higher concentrations” value (SASP; compared with 50 μM) was “less effective”, the “working concentration that inhibited SASP development with the greatest efficiency” value (SASP; concentration gradient, senescent PSC27) was 50 µM and the “percentage of surviving senescent cells” value (PSC27 [1]; SAE 2000 μM) was “approximately 10%”. For the same molecule, the “survival of proliferating cells” value (PSC27 [1]; SAE 3000 μM) was “not significantly reduced”, the “concentration from which significant death of senescent cells is induced” value (PSC27 [1]; vs control proliferating cells) was 200 µM and the “PD in proliferating cells” value (PSC27 [2]; SAE alone) was “does not affect PD”. The “population doubling (PD) ability of stromal cells after genotoxic treatment combined with SAE” value (PSC27 [2]; combination with genotoxic drug (BLEO) vs genotoxic drug alone) was “significant increase; also recorded: significantly increased”, the “change of proliferating cells” value (PSC27 [3]) was “not obvious” and the “proportion of apoptosis of senescent PSC27 cells” value (PSC27 [3]) was “significantly increased”. For the same molecule, the “viability of senescent PSC27 cells” value (PSC27 [3]) was “significantly reduced”, the “senescent cells in the lesions of animals treated with chemotherapeutic drugs after SAE administration” value [4] was “essentially depleted most senescent cells” and the “median survival of tumor-bearing mice” value (PC3/PSC27 tumors) was “only a marginal extension of survival”.
